In patent publication US11667612B2, “Compositions and methods for delivering pharmaceutical agents” (Arizona Board of Regents on Behalf of the University of …, priority 2017, dated 2023):
Where “and” joins values, the source holds several entries; their conditions need not be identical. Equal values may be shown once.

Assays:
[1] = Laser diffraction particle sizing and size distribution; assay type: physicochemical
Procedure: Particle size and size distributions of the particles were determined by laser diffraction with the SALD-7101 (Shimadzu Scientific Instruments, Japan) using conditions previously reported (Li X, Mansour H M., AAPS PharmSciTech. December 2011; 12(4):1420-1430; Meenach S A, et al., Int J Nanomedicine. 2013; 8:275-293; Wu X, et al., Drug design, development and therapy. 2013; 7:59-72; Wu X, et al., Int J Nanomedicine. 2013; 8:1269-1283) for measurement of the mean size and size distribution of SD particles in aqueous suspension. Samples were dispersed in ultrapure water and ultrasonicated for 10 s in water bath ultrasonicator Branson 7500 before measuring particle size. Sample particle dispersion was immediately transferred to particle size measuring cell and kept stirring during measurement in nano particle size analyzer. The low refractive index of 1.50-0.00i was used. Volume-based measurements were obtained. DV10, DV50, and DV90 were used as particle size characterization parameters. The span value was calculated using the equation defined as Span=[(DV90−DV10)/DV50] Equation 1. X-Ray Powder Diffraction (XRPD)

[2] = Karl Fischer coulometric titration, residual water content; assay type: physicochemical
[3] = In vitro aerosol dispersion performance, Next Generation Impactor (NGI); assay type: physicochemical; conditions: for Emitted Fraction (%) / Emitted dose / Fine Particle Dose / Fine Particle Fraction (%) / GSD / MMAD / Respirable Dose / Respirable Fraction (%): NGI 60 L/min
Procedure: In accordance with US Pharmacopeia (USP) Chapter <601> specification on aerosols and using conditions similar to previously reported (Meenach S A, et al., AAPS PharmSciTech. 2014; 15(6):1574-1587; Muralidharan P, et al., Molecular Systems Design & Engineering. 2016), the in vitro aerosol dispersion properties of the dry powder particles were determined using the Next Generation Impactor® (NGI®) with a stainless steel induction port (USP throat) attachment (NGI® Model 170), equipped with specialized stainless steel NGI® gravimetric insert cups (MSP Corporation, Shoreview, Md., USA). The NGI® was coupled with a Copley TPK 2000 critical flow controller connected to a Copley HCP5 vacuum pump, and the airflow rate (Q), was measured and adjusted prior to each experiment using a Copley DFM 200 flow meter (Copley Scientific, UK).
The mass of powder deposited on each stage was quantified by a gravimetric method using type A/E glass fiber filters with diameter 55 mm (PALL Corporation, Port Washington, N.Y.) and 75 mm (Advance, Japan). Quali-V clear HPMC size 3 inhalation grade capsules (Qualicaps, North Carolina) filled with about 10 mg of powder were used. Three capsules were used in each experiment. In vitro aerosolization was done in triplicate (n=3) under ambient conditions. The NGI™ was operated at a flow rate of 601 min^1 with an actuation time of 10 s through the inhaler. The glass fiber filter was measured gravimetrically before and after actuation, on each stage, to determine the particle stage deposition. The fine particle dose (FPD), fine particle fraction (FPF), respirable fraction (RF), and emitted dose (ED) were calculated using the following equations:
[formula] [formula] [formula] The mass mean aerodynamic diameter (MMAD) and geometric standard deviation (GSD) of aerosol dispersion profiles were determined using a Mathematica (Wolfram Research Inc., Champaign, Ill.) program ((Meenach S A, et al., AAPS PharmSciTech. 2014; 15(6):1574-1587; Muralidharan P, et al., Molecular Systems Design & Engineering. 2016). The aerosol dispersion performance was tested using three FDA approved inhalers Handihaler®, Aerolizer®, and Neohaler®. In Vitro Cell Dose Response Assay
In accordance with US Pharmacopeia (USP) Chapter <601> specification on aerosols and using conditions similar to previously reported, the in vitro aerosol dispersion properties of the dry powder particles were determined using the Next Generation Impactor® (NGI®) with a stainless steel induction port (USP throat) attachment (NGI® Model 170), equipped with specialized stainless steel NGI® gravimetric insert cups (MSP Corporation, Shoreview, Md., USA). The NGI® was coupled with a Copley TPK 2000 critical flow controller connected to a Copley HCP5 vacuum pump, and the airflow rate (Q), was measured and adjusted prior to each experiment using a Copley DFM 200 flow meter (Copley Scientific, UK).
The mass of powder deposited on each stage was quantified by gravimetric method using type A/E glass fiber filters with diameter 55 mm (PALL Corporation, Port Washington, N.Y.) and 75 mm (Advance, Japan). Quali-V clear HPMC size 3 inhalation grade capsules (Qualicaps, North Carolina) filled with about 10 mg of powder were used. Three capsules were used in each experiment. In vitro aerosolization was done in triplicate (n=3) under ambient conditions. The NGI™ was operated at a flow rate of 601 min^−1 with a delay time of 10 s before actuation of the inhaler, followed by 10 s of airflow through the inhaler. The glass fiber filter was measured gravimetrically before and after actuation, on each stage, to determine the particle stage deposition. The fine particle dose (FPD), fine particle fraction (FPF), respirable fraction (RF), and emitted dose (ED) were calculated using the 3-6 equations:

[4] = test system: Calu-3 lung epithelial cells; assay: In vitro transepithelial electrical resistance (TEER) analysis; assay type: cell-based, human; conditions: Calu-3, AIC, 100 μM
Procedure: The cells were seeded at 500,000 cells/ml in Costar Transwells® (0.4 μm polyester membrane, 12 mm for a 12-well plate) with 0.5 ml of media on the apical side and 1.5 ml of media on the basolateral side. Media was changed every other day from the basolateral and apical side. After 10 days of growth, when the cells reached a TEER value of about 1000 Ω/cm^2 which is an indicator of a confluent monolayer at liquid covered culture (LCC) the media was removed from both sides and 800 μl of media was added to the basolateral side of the Transwells to facilitate air-interface culture (AIC) conditions. The TEER responses of the cells were measured with an Endohom 12 mm Culture Cup (World Precision Instruments, Sarasota, Fla.). […] TEER values were then recorded for up to 7 days after aerosol treatment, as previously reported (Meenach S A, 2014, supra; Meenach S A, et al., April 2016; 48(4):1701-1709).
The cells were seeded at 500,000 cells/ml in Costar Transwells® (0.4 μm polyester membrane, 12 mm for a 12-well plate) with 0.5 ml of media on the apical side and 1.5 ml of media on the basolateral side. […] The TEER responses of the cells were measured with an Endohom 12 mm Culture Cup (World Precision Instruments, Sarasota, Fla.). […] TEER values were then recorded for up to 7 days after aerosol treatment, as previously reported (Meenach et al., 2014, supra; Meenach et al., 2016, supra).

[5] = test system: monocrotaline (MCT) rat model of PH; assay: In vivo hemodynamic efficacy study in PH induced rats (monocrotaline model); set-up: species or system Sprague Dawley rats; conditions: for Right ventricle systolic pressure (RVSP): individual rats, inhaled dry powder 10 mg/kg for 14 days
Procedure: In vivo studies were conducted in a monocrotaline (MCT) rat model with the purpose of testing the efficacy of TMP in decreasing PH. A total of 30 male Sprague Dawley rats (280-350 g) were used in this study. Rats were purchased from Charles River Laboratories International Inc. (Wilmington, Mass.). Rats were weighted weekly to monitor their health. PH was induced by injecting 60 mg/kg of MCT via intraperitoneally. The animals were divided into 5 groups (n=5) into the following categories: 1) Naïve (control), 2) Naïve+TMP, 3) MCT (PH induced) 4) MCT+ treated with vehicle (air), 5) MCT+ treated with TMP. Two weeks after MCT administration, the rats started to get the treatment via aerosolization of a dry powder formulation of SD TMP (10 mg/kg) using a Penn Century Dry Powder Insufflator™—Model DP-4M for 14 days. Right ventricle systolic pressure (RVSP) hemodynamics were performed after 2 weeks and 4 weeks after MCT administration by inserting a customized pressure transducer catheter (SPR-513, Millar Instruments, Houston, Tex.), into the right ventricle (RV) via the right jugular vein and right atrium. The transducer was connected to a Millar Transducer Control Unit TC-510 and PL3504 PowerLab 4/35 data acquisition system (ADInstruments, Inc., Colorado Springs, Colo.). At the end of pressure recording, the animals were euthanized.

[6] = laser diffraction, aqueous suspension, volume-based
[7] = Aerolizer, listed as spray dried TMP
[8] = Handihaler, listed as spray dried TMP
[9] = Neohaler, listed as spray dried TMP

Procedure for A549 pulmonary cell line: (§1) Cell-based assays are often used to determine if test molecules have effects on cell proliferation or show direct cytotoxicity effects that eventually leads to cell death. The effects of TMP formulations were analyzed by measuring the response of lung adenocarcinoma cells at different concentrations of the drug. […] The H348 pulmonary cell line is a human bronchoalveolar epithelial cell line similar to alveolar type II cells and express lung surfactant associated protein A (SP-A) (Acosta M F, et al., Current pharmaceutical design. 2016; 22(17):2522-2531). […]
(§2) As previously reported (Acosta et al., 2014, supra), both cell lines were seeded in 96-well plates at 5000 cells/well and 100 μl/well and allowed to attach for 48 hours. […] At this point, the fluorescence intensity was detected at 544 nm (excitation) and 590 nm (emission) using a Synergy H1 Multi-Mode Reader (BioTek Instruments Inc., Winooski, Vt.).
(§3) Cell-based assays are often used to determine if test molecules have effects on cell proliferation or show direct cytotoxicity effects that eventually leads to cell death. The effects of TMP formulations were analyzed by measuring the response of lung adenocarcinoma cells at different concentrations of the drug. […]
Procedure for H358 pulmonary cell line: as §1, §2, §3

Structure (SMILES): Cc1nc(C)c(C)nc1C [SD TMP, tetramethylpyrazine]
- Particle sizing span value ([1]; (Dv90-Dv10)/Dv50): 1.684±0.645
- Particle size distribution (size range) ([1]; laser diffraction): 4-14 μm
- Particle sizing Dv10 [1, 6]: 4.186±0.701 μm
- Particle sizing Dv50 [1, 6]: 6.156±1.47 μm and 6.156 ± 1.147 μm
- Particle sizing Dv90 [1, 6]: 14.552±4.928 μm
- Residual water content [2]: 0.368±0.103 % w/w
- Emitted Fraction (%) ([3]; Aerolizer): 88%
- Emitted dose ([3]; Aerolizer): 79.98 mg
- Fine Particle Dose ([3]; Aerolizer): 1.15 mg
- Fine Particle Fraction (%) ([3]; Aerolizer): 1.41%
- GSD ([3]; Aerolizer): 2.88
- MMAD ([3]; Aerolizer): 15.23 μm
- Respirable Dose ([3]; Aerolizer): 8.16 mg
- Respirable Fraction (%) ([3]; Aerolizer): 14.86 ± 8.0%
- Emitted Fraction (%) [3, 7]: 88.76 ± 7.27%
- Fine Particle Fraction (%) [3, 7]: 1.41 ± 0.57%
- MMAD [3, 7]: 15.23 μm
- Emitted Fraction (%) ([3]; Handihaler): 100%
- Emitted dose ([3]; Handihaler): 86.92 mg
- Fine Particle Dose ([3]; Handihaler): 3.33 mg
- Fine Particle Fraction (%) ([3]; Handihaler): 3.33%
- GSD ([3]; Handihaler): 5.28
- MMAD ([3]; Handihaler): 68.4 μm
- Respirable Dose ([3]; Handihaler): 37.24 mg
- Respirable Fraction (%) ([3]; Handihaler): 8.9 ± 3.87%
- Emitted Fraction (%) [3, 8]: 100 ± 2.03%
- Fine Particle Fraction (%) [3, 8]: 3.83 ± 0.42%
- MMAD [3, 8]: 68.4 μm
- Emitted Fraction (%) ([3]; Neohaler): 88%
- Emitted dose ([3]; Neohaler): 79.28 mg
- Fine Particle Dose ([3]; Neohaler): 3.48 mg
- Fine Particle Fraction (%) ([3]; Neohaler): 4.36%
- MMAD ([3]; Neohaler): 43.73 μm
- Respirable Dose ([3]; Neohaler): 25.19 mg
- Respirable Fraction (%) ([3]; Neohaler): 14.87 ± 7.30%
- Emitted Fraction (%) [3, 9]: 88.41 ± 6.70%
- Fine Particle Fraction (%) [3, 9]: 4.36 ± 0.65%
- MMAD [3, 9]: 43.73 μm
- Particles deposited on the first NGI stage ([3]; in vitro aerosol stage deposition): above 90%
- TEER (electrical resistance) ([4]; 3 hours after treatment): decreases drastically
- TEER (electrical resistance) ([4]; seven days of culturing after treatment): resistance was regained
- Right ventricle systolic pressure (RVSP) ([5]; Group 2 (Naive + TMP)): 20-25 mmHg and ~25 mmHg and 23.8990 mmHg and 24.7030 mmHg and 26.0550 mmHg and 19.6940 mmHg and 20.8110 mmHg and 24.2410 mmHg
- Right ventricle systolic pressure (RVSP) ([5]; Group 5 (MCT + TMP), 4 weeks after MCT): 58.6830 mmHg and 62.4200 mmHg and 43.3890 mmHg and 59.8200 mmHg and 78.2010 mmHg and 70.5310 mmHg
- Body weight ([5]; Group 5 (MCT + TMP), measured weekly): significant loss of weight
- Decrease of RVSP relative to group 3 (MCT, 4 weeks) ([5]; Group 5, after two weeks of aerosol treatment): 20-30 mmHg
- Effect on cell viability (A549 pulmonary cell line): didn't affect the cell viability
- Amount of drug found not to be toxic to pulmonary cell lines (A549 pulmonary cell line; human, 72 h): up to 7 mg
- Effect on cell viability (H358 pulmonary cell line): didn't affect the cell viability

Structure (SMILES): Cc1nc(C)c(C)nc1C [Raw TMP, tetramethylpyrazine, reference compound]
- Residual water content [2]: 0.633 ± 0.251% w/w
- Effect on cell viability (H358 pulmonary cell line): decrease
